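Interpolation was linear, between the two tested concentrations surrounding the appropriate level; five concentrations were tested over 48 hours in 96-well plates. GI50: concentration for 50% inhibition of growth.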 Activity calls are given as the source filed them. No stated cut-off is given here; in the data, active = GI50 up to about 1.1 µM and inactive = higher.
Key:
Test in all cases: NCI anticancer screen, dose series, 48 h
SK-MEL-2 = test system: SK-MEL-2
SN12C = test system: SN12C
HCT-116 = test system: HCT-116
CAKI-1 = test system: CAKI-1
SR = test system: SR
KM-20L2 = test system: KM-20L2
K562 = test system: K562
SF-539 = test system: SF-539
A549 = test system: A549
MOLT-4 = test system: MOLT-4
DMS-273 = test system: DMS-273
SNB-19 = test system: SNB-19
NCI-H460 = test system: NCI-H460
NCI-H522 = test system: NCI-H522
SW-620 = test system: SW-620
HT-29 = test system: HT-29
SF-268 = test system: SF-268
HL-60 = test system: HL-60
SNB-75 = test system: SNB-75
LXFL 529 = test system: LXFL 529
DLD-1 = test system: DLD-1
HCC 2998 = test system: HCC 2998
RXF 393 = test system: RXF 393
NCI-H226 = test system: NCI-H226
SNB-78 = test system: SNB-78
UO-31 = test system: UO-31
ACHN = test system: ACHN
SF-295 = test system: SF-295
HOP-92 = test system: HOP-92
RPMI-8226 = test system: RPMI-8226
OVCAR-5 = test system: OVCAR-5
CCRF-CEM = test system: CCRF-CEM
SK-OV-3 = test system: SK-OV-3
LOX IMVI = test system: LOX IMVI
786-0 = test system: 786-0
HCT-15 = test system: HCT-15
SK-MEL-5 = test system: SK-MEL-5
M19-MEL = test system: M19-MEL
COLO 205 = test system: COLO 205
A498 = test system: A498
OVCAR-4 = test system: OVCAR-4
EKVX = test system: EKVX
U-251 = test system: U-251
UACC-62 = test system: UACC-62
IGROV-1 = test system: IGROV-1
DMS-114 = test system: DMS-114
M14 = test system: M14
SK-MEL-28 = test system: SK-MEL-28
NCI-H23 = test system: NCI-H23

Measured: GI50

O=C(CC1(O)C(=O)Nc2ccccc21)c1ccc(Cl)c(Cl)c1 (centres undefined)
inactive: SK-MEL-2 > 100 µM | SN12C > 100 µM | HCT-116 > 100 µM | CAKI-1 > 100 µM | SR > 100 µM | KM-20L2 > 100 µM | K562 > 100 µM | SF-539 > 100 µM | A549 > 100 µM | MOLT-4 > 100 µM | DMS-273 > 100 µM | SNB-19 > 100 µM | NCI-H460 > 100 µM | NCI-H522 > 100 µM | SW-620 > 100 µM | HT-29 > 100 µM | SF-268 > 100 µM | HL-60 22.8 µM | SNB-75 > 100 µM | LXFL 529 > 100 µM | DLD-1 > 100 µM | HCC 2998 > 100 µM | RXF 393 > 100 µM | NCI-H226 > 100 µM | SNB-78 97.3 µM | UO-31 > 100 µM | ACHN > 100 µM | SF-295 > 100 µM | HOP-92 > 100 µM | RPMI-8226 > 100 µM | OVCAR-5 > 100 µM | CCRF-CEM 63.8 µM | SK-OV-3 > 100 µM | LOX IMVI > 100 µM | 786-0 > 100 µM | SK-MEL-5 > 100 µM | M19-MEL 77.4 µM | COLO 205 > 100 µM | A498 > 100 µM | OVCAR-4 > 100 µM | EKVX 69.3 µM | U-251 > 100 µM | UACC-62 > 100 µM | IGROV-1 > 100 µM | DMS-114 > 100 µM | M14 > 100 µM | SK-MEL-28 > 100 µM | NCI-H23 > 100 µM
> 100 µM: HCT-15
